Reference: US10272082B2, “Combination ALS therapy” (Cytokinetics, Inc., priority 2011, dated 2019)
“Also recorded” adds a separate entry of the source.

Assays:
human hepatic microsomes = settings: in vitro; high concentrations required; cited from earlier work
clinical = settings: human, plasma, CK-2017357 Cmax, 14 days, ALS patients
[1] = ALS patients
[2] = Previous clinical experiments with CK-2017357 once a day in the morning; format: in vivo, human
Text: In previous clinical experiments, 1-(ethylpropyl)-6-ethynylimidazo[4,5-b]pyrazin-2-ol (CK-2017357) has been administered once a day in the morning. While improvements in patient and investigator global assessments, muscle fatigability and pulmonary function have been observed in these studies, dizziness has been a dose-limiting adverse event in both healthy volunteers and in patients with ALS. This example examines whether the maximum tolerable total daily dose of CK-2017357 can be increased by dividing the daily dose into two portions (morning and evening), and beginning treatment with a low dose and titrating upward to a target of 250 mg twice daily.

[3] = Example 4: twice-daily dose titration regimen of CK-2017357 in patients with ALS; format: in vivo
Text: Patients enrolled in this clinical study were randomized, double-blind, and placebo-controlled.
Placebo patients underwent a similar dummy dose titration to maintain the blind. FIG. 4 illustrates the study design.

CYP1A2 = target: T1, CYP1A2 (Homo sapiens, UniProt P05177); assay: Mechanism-based inhibition of human CYP1A2 in vitro; format: in vitro ADME
T1 sequence (P05177 1-516): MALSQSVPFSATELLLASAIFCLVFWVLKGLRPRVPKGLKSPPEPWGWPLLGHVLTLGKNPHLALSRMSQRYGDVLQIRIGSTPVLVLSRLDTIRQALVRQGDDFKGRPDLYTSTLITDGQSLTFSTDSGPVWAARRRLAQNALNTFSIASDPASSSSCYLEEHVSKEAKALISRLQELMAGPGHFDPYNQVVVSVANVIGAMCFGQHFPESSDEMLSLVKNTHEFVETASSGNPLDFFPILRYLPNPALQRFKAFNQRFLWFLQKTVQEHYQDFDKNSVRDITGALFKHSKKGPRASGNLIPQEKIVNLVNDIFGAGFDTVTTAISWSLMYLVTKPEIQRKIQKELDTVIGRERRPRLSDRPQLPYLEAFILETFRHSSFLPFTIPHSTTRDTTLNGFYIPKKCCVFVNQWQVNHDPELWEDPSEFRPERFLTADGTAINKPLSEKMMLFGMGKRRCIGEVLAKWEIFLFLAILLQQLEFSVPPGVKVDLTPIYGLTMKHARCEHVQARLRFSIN

[4] = repeated single daily doses 125-375 mg

Compound: O=C(O)Cc1ccccc1Nc1c(Cl)cccc1Cl [diclofenac]
- inhibition of the metabolism of riluzole by human hepatic microsomes (human hepatic microsomes): inhibition has been observed

Compound: C#Cc1cnc2nc(O)n(C(CC)CC)c2n1 [CK-2017357, 6-Ethynyl-1-(pentan-3-yl)-1H-imidazo[4,5-b]pyrazin-2(3H)-one]
- Cmax (clinical; 50 mg, CK-2017357 daily dose 125 (mg), On Riluzole (50 mg daily)): 6000 ng/mL
- Cmax (clinical; 50 mg, CK-2017357 daily dose 250 (mg), On Riluzole (50 mg daily)): 8400 ng/mL
- Cmax (clinical; 50 mg, CK-2017357 daily dose 375 (mg), On Riluzole (50 mg daily)): 13500 ng/mL
- Cmax (clinical; 125 mg, CK-2017357 daily dose 125 (mg), No Riluzole): 4100 ng/mL
- Cmax (clinical; 250 mg, CK-2017357 daily dose 250 (mg), No Riluzole): 7400 ng/mL
- Cmax (clinical; 375 mg, CK-2017357 daily dose 375 (mg), No Riluzole): 12700 ng/mL
- dose dependence of CK-2017357 pharmacokinetics ([1]; 125, 250, 375 mg daily for 14 days): increased proportionally by dose; also recorded: predictable linear kinetics
- adverse event frequencies in the presence of riluzole ([1]; at any dose of CK-2017357): not altered
- plasma levels achieved steady state by [1, 4]: ≤ 8 days
- time to reach steady state [1, 4]: ≤ 1 week
- plasma level four hours after dosing on Day 8 higher than four hours after first dose on Day 1 ([1]; repeated single daily doses): approximately 70%
- effect of riluzole on CK-2017357 Cmax / plasma levels ([1]; riluzole 50 mg daily vs none): no apparent effect of riluzole; also recorded: not affected
- dose-limiting adverse event ([2]; healthy volunteers and patients with ALS): dizziness
- patient and investigator global assessments, muscle fatigability and pulmonary function ([2]; previous clinical experiments): improvements
- safety and tolerability of twice-daily dose titration regimen ([3]; ALS patients): safe and well tolerated
- ALSFRS-R score and MVV ([3]; CK-2017357 relative to placebo, ALS patients): Encouraging trends toward increases
- patients in whom dizziness was self-limited ([3]; of 12 patients in whom it occurred): 6 patients
- patients in whom dizziness was mild ([3]; of the 12 patients in whom it occurred): 10 patients
- patients escalated to the highest total daily dose of 500 mg and completing three weeks of dosing ([3]; of the 21 patients randomized to CK-2017357, twice-daily titration, riluzole 50 mg QD): 14 patients
- most commonly reported treatment-emergent adverse event ([3]; twice-daily dose titration 250-500 mg total daily, ALS patients): dizziness
- KI (inactivation) (CYP1A2; read-out: K1 (inactivation constant)): 1900 nM
- kinact (CYP1A2; read-out: kinact (max rate constant for inactivation) (converted)): 0.000517 s⁻¹

Compound: CO[C@]12C[C@@H](COC(=O)c3cncc(Br)c3)CN(C)[C@@H]1Cc1cn(C)c3cccc2c13 [nicergoline]
- inhibition of the metabolism of riluzole by human hepatic microsomes (human hepatic microsomes): inhibition has been observed

Compound: CN(C)CCC=C1c2ccccc2CCc2ccccc21 [amitriptyline]
- inhibition of the metabolism of riluzole by human hepatic microsomes (human hepatic microsomes): inhibition has been observed

Compound: CN(C)CCCN1c2ccccc2CCc2ccc(Cl)cc21 [clomipramine]
- inhibition of the metabolism of riluzole by human hepatic microsomes (human hepatic microsomes): inhibition has been observed
